± gives the expanded uncertainty stated by the source.
Details: 101.33 kPa, Liquid; for speed of sound: Pulse-echo method; for mass density: Vibrating tube method

Compound	speed of sound (293.15 K) [m/s]	mass density (293.15 K) [kg/m3]	speed of sound (298.15 K) [m/s]	mass density (298.15 K) [kg/m3]	speed of sound (303.15 K) [m/s]	mass density (303.15 K) [kg/m3]
CNc1ccccc1 [N-methylaniline]	1582.5 ± 2.1	986.295 ± 0.82	1563.9 ± 2.1	982.278 ± 0.82	1546 ± 2.1	978.284 ± 0.81
Nc1ccccc1 [aniline]	1657 ± 0.94	1021.84 ± 0.092	1637.8 ± 0.9	1017.51 ± 0.09	1619.3 ± 0.9	1013.23 ± 0.088
CCC(C)=O [butanone]	1212 ± 0.8	805.08 ± 0.14	1190.8 ± 0.8	799.861 ± 0.14	1170.6 ± 0.8	794.636 ± 0.14
c1ccncc1 [pyridine]	1436.6 ± 0.9	983.163 ± 0.087	1416.2 ± 0.9	978.138 ± 0.089	1396.9 ± 0.9	973.148 ± 0.09
